Measurements taken from patent US20250368647A1, “NITROGEN CONTAINING CONDENSED 2,3-DIHYDROQUINAZOLINONE COMPOUNDS AS NAV1.8 INHIBITORS” (GLAXOSMITHKLINE INTELLECTUAL PROPERTY DEVELOPMENT LIMITED, priority 2022, published 2025).
Counter-ions that a name gives are not always drawn.

biological target: human Nav1.8 (Homo sapiens (Human), UniProt Q9Y5Y9); assay: QPatch 48 HTX voltage-clamp electrophysiology, half inactivation state (V1/2) protocol, HEK293-Nav1.8 cells; format: cell-based; details: HEK293 cells expressing human Nav1.8, human Navβ1 and human TREK1, P2 current
Description: Human embryonic kidney 293 cells (HEK293) expressing human Nav1.8, human Navβ1 and human TREK1 (HEK293-Nav1.8) were grown in T150 cell culture flasks at 37° C., 5% CO2 incubator. HEK293-Nav1.8 were passaged every 2-3 days when confluency reached 80-90% in T150 cell culture flasks.
Pharmacological assessment of compounds of the invention was performed using the QPatch 48 HTX electrophysiological platform. HEK293-Nav1.8 cells were prepared on the day of use by removing culture media, washing in DPBS, adding Accutase (2 mL to cover the surface, aspirate 1 mL then 1-2 minutes at 37° C.) followed by addition of CHO-SFM II to stop the enzyme digestion and in order to obtain a suspension of 3×10^6 cell/mL.
Compounds of the invention were prepared in an extracellular solution of the following composition: NaCl (145 mM), KCl (4 mM), CaCl2) (2 mM), MgCl (2 mM), HEPES (1 mM), Glucose (10 mM), pH 7.4 with NaOH Osmolality 300 mOsM/L. An intracellular solution of the following composition was used: CsF (115 mM), CsCl (20 mM), NaCl (5 mM), EGTA (10 mM), HEPES (10 mM), Sucrose (20 mM), pH 7.2 with CsOH Osmolality 310 mOsm/L.
Utilizing the voltage-clamp mode in the QPatch 48 HTX system a half inactivation state voltage protocol (V1/2) was used to determine pharmacological activity of compounds of the invention at Nav1.8 ion channels. A V1/2 protocol was utilized with the following voltage steps: a holding voltage of −100 mV was established followed by a 20 ms voltage step to 0 mV (P1), followed by an inactivating voltage step at −46 mV for 8 seconds, followed by a step to −100 mV for 20 ms, before a 20 ms step to 0 mV (P2), then returned to the holding voltage of −100 mV. This voltage protocol was repeated at a frequency of every 15 seconds, the current magnitude was quantified at the P2 step throughout the recording. Inhibition of the measured current amplitude with compounds of the invention was analyzed by fitting a 4-6 points dose-response curve allowing determination of the fifty percent inhibition concentration (IC50). P2 currents were normalized according to measurements made at baseline (Baseline, vehicle only), after compound (Input, at each test concentration), and after positive reference compound (FullResponse, to achieve complete block), fit to the following equation: […]
To assess current run-down over the course of the experiment vehicle-only wells were utilized and the normalized current with vehicle-only (n.IVEH) was determined. To correct the compound response for run-down, the currents were corrected according to the following formula: […]
Compound inhibition was fitted to the following Hill Equation to estimate the half maximal inhibition concentration (IC50)
[formula] • where Y is the normalized run-down corrected inhibition relative to the vehicle control (equivalent to n.IRD_Correct), C the test compound concentration, IC50 the concentration of test compound to inhibit the sodium current by 50%, and h the Hill coefficient.

Chain of human Nav1.8 (Q9Y5Y9 whole entry): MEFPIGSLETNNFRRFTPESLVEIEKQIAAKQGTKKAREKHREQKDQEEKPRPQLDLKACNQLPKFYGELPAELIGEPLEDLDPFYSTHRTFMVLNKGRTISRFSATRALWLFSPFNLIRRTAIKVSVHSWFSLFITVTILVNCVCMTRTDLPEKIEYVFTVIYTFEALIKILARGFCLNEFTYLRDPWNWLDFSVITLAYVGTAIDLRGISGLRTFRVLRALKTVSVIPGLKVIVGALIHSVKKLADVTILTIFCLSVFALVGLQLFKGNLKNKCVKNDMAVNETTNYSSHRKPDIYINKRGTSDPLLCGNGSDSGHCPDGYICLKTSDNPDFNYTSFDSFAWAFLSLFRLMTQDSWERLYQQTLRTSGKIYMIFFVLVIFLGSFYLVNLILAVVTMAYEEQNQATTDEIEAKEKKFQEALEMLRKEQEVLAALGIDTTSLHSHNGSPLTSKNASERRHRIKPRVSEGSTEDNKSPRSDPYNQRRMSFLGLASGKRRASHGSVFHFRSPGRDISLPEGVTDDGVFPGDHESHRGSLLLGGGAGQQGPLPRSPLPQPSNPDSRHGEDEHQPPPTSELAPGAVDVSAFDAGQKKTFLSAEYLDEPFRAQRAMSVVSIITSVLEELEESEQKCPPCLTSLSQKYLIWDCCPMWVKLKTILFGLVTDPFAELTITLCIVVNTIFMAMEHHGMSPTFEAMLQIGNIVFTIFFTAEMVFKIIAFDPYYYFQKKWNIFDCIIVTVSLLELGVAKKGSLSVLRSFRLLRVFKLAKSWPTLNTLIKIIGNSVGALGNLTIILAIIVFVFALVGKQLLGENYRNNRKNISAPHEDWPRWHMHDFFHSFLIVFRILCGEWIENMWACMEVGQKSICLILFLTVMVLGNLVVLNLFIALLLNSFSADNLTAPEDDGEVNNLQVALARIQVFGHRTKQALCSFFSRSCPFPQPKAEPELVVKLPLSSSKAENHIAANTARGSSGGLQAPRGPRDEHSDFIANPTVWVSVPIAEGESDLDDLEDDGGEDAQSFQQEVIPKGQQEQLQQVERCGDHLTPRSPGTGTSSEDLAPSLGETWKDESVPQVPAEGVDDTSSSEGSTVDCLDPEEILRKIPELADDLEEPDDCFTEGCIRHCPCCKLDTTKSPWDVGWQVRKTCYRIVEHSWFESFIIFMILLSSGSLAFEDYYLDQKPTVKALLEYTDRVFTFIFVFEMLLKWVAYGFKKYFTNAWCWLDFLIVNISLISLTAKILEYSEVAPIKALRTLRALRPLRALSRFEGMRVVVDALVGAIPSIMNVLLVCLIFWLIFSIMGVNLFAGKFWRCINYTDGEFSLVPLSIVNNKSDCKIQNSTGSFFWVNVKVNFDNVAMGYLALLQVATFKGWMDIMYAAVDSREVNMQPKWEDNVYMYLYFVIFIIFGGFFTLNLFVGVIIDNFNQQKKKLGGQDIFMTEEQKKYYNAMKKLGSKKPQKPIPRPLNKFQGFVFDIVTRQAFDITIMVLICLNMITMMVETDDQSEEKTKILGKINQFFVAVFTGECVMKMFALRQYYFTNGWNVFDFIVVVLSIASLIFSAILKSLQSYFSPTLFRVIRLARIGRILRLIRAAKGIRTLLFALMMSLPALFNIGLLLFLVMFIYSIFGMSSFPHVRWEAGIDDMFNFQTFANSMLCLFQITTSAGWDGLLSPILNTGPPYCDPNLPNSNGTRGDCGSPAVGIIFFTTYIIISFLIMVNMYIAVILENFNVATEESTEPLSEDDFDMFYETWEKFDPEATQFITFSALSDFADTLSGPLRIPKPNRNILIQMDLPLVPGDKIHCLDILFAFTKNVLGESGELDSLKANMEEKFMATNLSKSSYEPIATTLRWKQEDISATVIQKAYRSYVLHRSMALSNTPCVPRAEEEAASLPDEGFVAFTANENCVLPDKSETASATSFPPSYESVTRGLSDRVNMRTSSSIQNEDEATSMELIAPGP
Chain of human Nav1.8 (Q07699 19-218 partner): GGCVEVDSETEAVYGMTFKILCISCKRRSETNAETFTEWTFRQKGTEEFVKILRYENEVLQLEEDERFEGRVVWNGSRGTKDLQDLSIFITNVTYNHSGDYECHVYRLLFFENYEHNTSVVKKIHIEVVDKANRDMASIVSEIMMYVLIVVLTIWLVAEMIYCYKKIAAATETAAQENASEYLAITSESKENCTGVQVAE

Row | SMILES | Nav1.8, pIC50
1 | Cl.O=C1c2cc(F)c(Cl)cc2N2CN1c1ccc(=O)[nH]c1CCNCc1cc(F)ccc12 [Example 46, 3-Chloro-2,8-difluoro-10,11,12,13-tetrahydro-19H-5,18-methanodibenzo[c,f]pyrido[3,2-j][1,5,9]triazacyclotridecine-15,19(14H)-dione, hydrochloride] | 8
2 | Cl.O=C1c2cc(F)c(F)cc2N2CN1c1ccc(=O)[nH]c1CCNCc1c(C(F)F)cccc12 [Example 79, 9-(Difluoromethyl)-2,3-difluoro-10,11,12,13-tetrahydro-19H-5,18-methanodibenzo[c,f]pyrido[3,2-j][1,5,9]triazacyclotridecine-15,19(14H)-dione hydrochloride] | 7.1
3 | Cl.N#Cc1cc2c(cc1F)C(=O)N1CN2c2ccc(OC(F)(F)F)cc2CNCCc2[nH]c(=O)ccc21 [Example 88, 2-Fluoro-15,19-dioxo-8-(trifluoromethoxy)-10,11,12,13,14,15-hexahydro-19H-5,18-methanodibenzo[c,f]pyrido[3,2-j][1,5,9]triazacyclotridecine-3-carbonitrile hydrochloride] | 7.7
4 | O=C1c2cc(C(F)(F)F)ccc2N2CN1c1ccc(=O)[nH]c1CCCCCCc1cc(F)ccc12 [Example 10, 3^4-Fluoro-2^6-(trifluoromethyl)-1^1,1^2,2^1,2^2,2^3,2^4-hexahydro-2(3,1)-quinazolina-1(5,6)-pyridina-3(1,2)-benzenacyclononaphane-1^2,2^4-dione] | 6.5
5 | Cl.N#Cc1cc2c(cc1F)C(=O)N1CN2c2ccc(F)c(Cl)c2CNCCCc2[nH]c(=O)ccc21 [Example 110, 3^3-Chloro-2^6,3^4-difluoro-1^2,2^4-dioxo-1^1,1^2,2^1,2^2,2^3 2^4-hexahydro-5-aza-2(3,1)-quinazolina-1(5,6)-pyridina-3(1,2)-benzenacyclooctaphane-2^7-carbonitrile hydrochloride] | 6.8
6 | O=C1c2cc(C(F)(F)F)ccc2N2CN1c1ccc(=O)[nH]c1CNCCCc1cc(F)ccc12 [Example 104, 3^4-Fluoro-2^6-(trifluoromethyl)-1^1,1^2,2^1,2^2,2^3,2^4-hexahydro-7-aza-2(3,1)quinazolina-1(5,6)-pyridina-3(1,2)-benzenacyclooctaphane-1^2,2^4-dione] | 6.9
7 | O=C1c2ccc(C(F)(F)F)cc2N2CN1c1ccc(=O)[nH]c1NCCCCc1cc(F)ccc12 [Example 12, 3^4-Fluoro-2^7-(trifluoromethyl)-1^1,1^2,2^1,2^2,2^3,2^4-hexahydro-8-aza-2(3,1)-quinazolina-1(5,6)-pyridina-3(1,2)-benzenacyclooctaphane-1^2,2^4-dione] | 7.6
8 | Cl.O=C1c2cc(F)c(F)cc2N2CN1c1ccc(=O)[nH]c1CCNCc1c2ccc(F)c1Cl [Example 64, 9-Chloro-2,3,8-trifluoro-10,11,12,13-tetrahydro-19H-5,18-methanodibenzo[c,f]pyrido[3,2-i][1,5,9]triazacyclotridecine-15,19(14H)-dione hydrochloride] | 8.2
9 | CN1CCCCc2cc(F)ccc2N2CN(C(=O)c3ccc(C(F)(F)F)cc32)c2ccc(=O)[nH]c21 [Example 13, 3^4-Fluoro-8-methyl-2^7-(trifluoromethyl)-1^1,1^2,2^1,2^2,2^3,2^4-hexahydro-8-aza-2(3,1)-quinazolina-1(5,6)-pyridina-3(1,2)-benzenacyclooctaphan-1^2,2^4-dione] | 7.3
10 | C[C@@H]1NCCc2[nH]c(=O)ccc2N2CN(c3cc(Cl)c(F)cc3C2=O)c2ccc(F)cc21 [Example 122, (10S)-3-chloro-2,8-difluoro-10-methyl-10,11,12,13-tetrahydro-19H-5,18-methanodibenzo[c,f]pyrido[3,2-j][1,5,9]triazacyclotridecine-15,19(14H)-dione] | 5.9
11 | CNc1cc2c(cc1F)C(=O)N1CN2c2ccc(F)cc2CNCCc2[nH]c(=O)ccc21 [Example 54, 2,8-Difluoro-3-(methylamino)-10,11,12,13-tetrahydro-19H-5,18-methano-dibenzo[c,f]pyrido[3,2-j][1,5,9]triazacyclotridecine-15,19(14H)-dione] | 6
12 | CC1NCCc2[nH]c(=O)ccc2N2CN(c3cc(Cl)c(F)cc3C2=O)c2ccc(F)cc21 (racemic) [Example 120, 3-Chloro-2,8-difluoro-10-methyl-10,11,12,13-tetrahydro-19H-5,18-methanodibenzo[c,f]pyrido-[3,2-j][1,5,9]triazacyclotridecine-15,19(14H)-dione hydrochloride] | 7
13 | O=C1c2ccc(C(F)(F)F)cc2N2CN1c1ccc(=O)[nH]c1NCCCc1cc(F)ccc12 [Example 28, 8-Fluoro-3-(trifluoromethyl)-10,11,12,13-tetrahydro-19H-5,18-methanodibenzo[f,i]pyrido[2,3-b][1,4,8]triazocyclotridecine-15,19(14H)-dione] | 7.5
14 | Cl.O=C1c2cc(F)c(C(F)(F)F)cc2N2CN1c1ccc(=O)[nH]c1CCCNCc1cc(F)ccc12 [Example 107, 2^6,3^4-Difluoro-2^7-(trifluoromethyl)-1^1,1^2,2^1,2^2,2^3,2^4-hexahydro-5-aza-2(3,1)-quinazolina-1(5,6)-pyridina-3(1,2)-benzenacyclooctaphane-1^2,2^4-dione hydrochloride] | 7.3
15 | Cl.O=C1c2cc(F)c(F)cc2N2CN1c1ccc(=O)[nH]c1CCNCc1cc(OC(F)(F)F)ccc12 [Example 86, 2,3-Difluoro-8-(trifluoromethoxy)-10,11,12,13-tetrahydro-19H-5,18-methanodibenzo[c,f]pyrido[3,2-j][1,5,9]triazacyclotridecine-15,19(14H)-dione hydrochloride] | 7.5
16 | Cl.O=C1c2cc(F)c(C(F)(F)F)cc2N2CN1c1ccc(=O)[nH]c1CCNCc1c(Cl)cccc12 [Example 81, 9-Chloro-2-fluoro-3-(trifluoromethyl)-10,11,12,13-tetrahydro-19H-5,18-methanodibenzo-[c,f]pyrido[3,2-j][1,5,9]triazacyclotridecine-15,19(14H)-dione hydrochloride] | 8.5
17 | O=C1c2cnc(C(F)(F)F)cc2N2CN1c1ccc(=O)[nH]c1CCCCCc1cc(F)ccc12 [Example 9, 3^4-Fluoro-2^7-(trifluoromethyl)-1^1,1^2,2^1,2^2,2^3,2^4-hexahydro-2(3,1)-pyrido[4,3-d]pyrimidina-1(5,6)-pyridina-3(1,2)-benzenacyclooctaphane-1^2,2^4-dione] | 7.3
18 | CN1CCc2cc(F)ccc2N2CN(C(=O)c3cc(F)c(C(F)(F)F)cc32)c2ccc(=O)[nH]c2CC1 [Example 112, 2^6,3^4-Difluoro-6-methyl-2^7-(trifluoromethyl)-1^1,1^2,2^1,2^2,2^3,2^4-hexahydro-6-aza-2(3,1)-quinazolina-1(5,6)-pyridina-3(1,2)-benzenacyclooctaphane-1^2,2^4-dione] | 6.2
19 | COc1c(F)ccc2c1CNCCc1[nH]c(=O)ccc1N1CN2c2cc(C#N)c(F)cc2C1=O.Cl [Example 73, 2,8-Difluoro-9-methoxy-15,19-dioxo-10,11,12,13,14,15-hexahydro-19H-5,18-methanodibenzo-[c,f]pyrido[3,2-j][1,5,9]triazacyclotridecine-3-carbonitrile hydrochloride] | 6.1
20 | Cl.O=C1c2cc(F)c(F)cc2N2CN1c1ccc(=O)[nH]c1CCNCc1c2ccc(Cl)c1Cl [Example 77, 8,9-Dichloro-2,3-difluoro-10,11,12,13-tetrahydro-19H-5,18-methanodibenzo[c,f]pyrido[3,2-j][1,5,9]triazacyclotridecine-15,19(14H)-dione hydrochloride] | 8.7

same assay, conditions: HEK293 cells expressing human Nav1.8, human Navβ1 and human TREK1, P2 current, read-out: Nav1.8, pIC50 (converted)

Row | SMILES | IC50
21 | CC[C@H]1NCCc2[nH]c(=O)ccc2N2CN(c3cc(C(F)(F)F)c(F)cc3C2=O)c2ccc(F)cc21 [Example 127, (10R)-10-ethyl-2,8-difluoro-3-(trifluoromethyl)-10,11,12,13-tetrahydro-19H-5,18-methanodibenzo[c,f]pyrido[3,2-j][1,5,9]triazacyclotridecine-15,19(14H)-dione] | 0.0631 µM
